Results reported in US9051325B2, “Bicyclic [5,6] imidazo pyrimodone compounds for use in the treatment of diseases or conditions mediated by Lp-PLA2” (GlaxoSmithKline Intellectual Property Development Limited, priority 2013, dated 2015).
Like-named read-outs stand apart in the source and are kept apart here.

Assays:
Lp-PLA2 in human plasma = target: T1, Lp-PLA2 in human plasma (Homo sapiens, UniProt Q13093); assay: Lp-PLA2 human plasma assay (Thio-PAF assay); format: biochemical; conditions: pooled human plasma; lower bounds; read-out: pIC50 values in the thio-PAF assay (converted)
T1 construct: from tissue; host or cells: pooled human plasma
T1 sequence (Q13093 22-441): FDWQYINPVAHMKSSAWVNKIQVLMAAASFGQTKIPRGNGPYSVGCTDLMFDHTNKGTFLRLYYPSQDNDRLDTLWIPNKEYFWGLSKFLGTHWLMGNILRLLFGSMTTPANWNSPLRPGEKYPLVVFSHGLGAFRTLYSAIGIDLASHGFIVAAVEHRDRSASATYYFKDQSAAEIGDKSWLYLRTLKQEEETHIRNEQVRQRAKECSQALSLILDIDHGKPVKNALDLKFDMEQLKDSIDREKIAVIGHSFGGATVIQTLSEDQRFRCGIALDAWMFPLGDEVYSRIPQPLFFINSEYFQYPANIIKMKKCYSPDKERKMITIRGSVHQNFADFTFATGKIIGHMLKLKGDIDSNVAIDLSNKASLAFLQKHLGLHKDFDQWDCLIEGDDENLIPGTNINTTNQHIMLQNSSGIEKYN
Description: (3) Lipoprotein-Associated Phospholipase A2 (Lp-PLA2) Human Plasma Assay (Also Referred to as “Thio-PAF assay”)
The human plasma assay utilizes a thioester analog of PAF (phosphatidylcholine), where hydrolysis yields to the formation of a phospholipid containing a free thiol group. The amount of thiol is quantitated continuously by reacting with CPM (7-diethylamino-3-(4′-maleimidylphenyl)-4-methylcoumarin), a maleimide which increases in fluoresence after Michael addition of thiols. This assay may detect the activity of Lp-PLA2 in human plasma, as determined by specific inhibition by Lp-PLA2 inhibitors.
The thio-PAF assay was run as a quenched 15 μL assay. Compounds source plate was prepared by making 1:3 (by volume) serial dilution of the compounds into pure DMSO on 384-well microplate. 0.01 μL of compounds on compound source plate were transferred to 384 well Greiner 784076 (black) low-volume plates by ECHO liquid dispenser. 8 μL pooled human plasma, which was previously aliquoted and frozen, was added. Plates were centrifuged for 10 sec at 500 rpm. After 30 minutes preincubation, 2 μL of substrate solution comprising 2.5 mM 2-thio-PAF [from ethanol stock], 32 μM CPM [from a DMSO stock] and 3.2 mM NEM (N-ethylmaleimide) [made fresh daily in DMSO] in assay buffer of 50 mM HEPES, pH 7.4, 150 mM NaCl, 1 mM CHAPS was added to 384 well Greiner 784076 (black) low-volume plates by BRAVO liquid handling station. After 2 mins, reaction was quenched with 5 μL of 5% aqueous trifluoroacetic acid (TFA). Plates were covered to protect from light and incubated for 40 min at room temperature. Plates were read at ex: 380/em: 485 using-Envision microplate reader. PIC50 data, curve and QC analysis were conducted by using XLFit module in Excel.

[1] = target: T2, recombinant human Lp-PLA2 (Homo sapiens, UniProt Q13093); assay: Recombinant human Lp-PLA2 assay (rhLp-PLA2, PED6 assay); format: biochemical
T2 sequence (Q13093 22-441): T1 sequence (Q13093 22-441)
Description: (1) Recombinant Human Lp-PLA2 Assay (rhLp-PLA2) (Also Referred to as “PED6” Assay)
N-((6-(2,4-dinitrophenyl)amino)-hexanoyl)-2-(4,4-difluoro-5,7-dimethyl-4-bora-3a,4a-diaza-s-indacene-3-pentanoyl)-1-hexadecanoyl-sn-glycero-3-phosphoethanolamine, triethylammonium salt (PED6) is a commercially available fluorescently-labeled phospholipid, which is commercially available from Invitrogene and Molecular Probes. There is a quenching […] and a Bodipy fluorescein (FL) group in the sn2 position. Upon cleavage with Lp-PLA2, the Bodipy FL group is liberated and then may result in an increase in fluorescence. Inhibitors of Lp-PLA2 therefore prevent this cleavage and no fluorescent increase is observed.
The PED6 assay was run as an unquenched 10 μL assay. The source plate containing the compounds to be tested was prepared by making 1:3 (by volume) serial dilution of the compounds within DMSO on 384-well microplate. Then, 0.01 μL of the compounds on compound source plate were transferred into 384 well Greiner 784076 (black) plates using ECHO liquid dispenser. 5 μL of recombinant human Lp-PLA2 enzyme (4 nM (or […]) rhLp-PLA2 in assay buffer of 50 mM HEPES, pH 7.4, 150 mM NaCl, 1 mM CHAPS) was added to each well of the plate. Plates were centrifuged for 10 sec at 500 rpm. After 30 minutes preincubation, 5 μL of substrate ([…] PED6 [from 5 mM DMSO stock] in assay buffer of 50 mM HEPES, pH 7.4, 150 mM NaCl, 1 mM CHAPS) was added to 384 well Greiner 784076 (black) plates. Plates were centrifuged for 10 sec at 500 rpm. The plate was covered to protect it from light and incubated for 20 min at room temperature. The plates were read for fluorescence intensity at ex: 480/em: 540 using ViewLux microplate imager for Envision spectrofluoroimeters pIC50 data, curve and QC analysis was conducted by using XL fit module in Excel.

[2] = lower bounds, read-out: pIC50 values in the PED6 assay (converted)
[3] = read-out: rhLp-PLA2 (PED6 assay) (pIC50) (converted)

Row | IC50 (Lp-PLA2 in human plasma) | IC50 [1, 2] | IC50 [1, 3] | SMILES
1 | ≤ 100 nM | ≤ 1 nM |  | CC1Cn2c(cc(OCc3ccc(Oc4cc(F)cc(C(F)(F)F)c4)c(C#N)c3)nc2=O)N1C (centres unmarked) [Example E1, 5-(((1,2-dimethyl-5-oxo-1,2,3,5-tetrahydroimidazo[1,2-c]pyrimidin-7-yl)oxy)methyl)-2-(3-fluoro-5-(trifluoromethyl)phenoxy)benzonitrile]
2 | ≤ 100 nM | ≤ 10 nM |  | CC1Cn2c(cc(OCc3ccc(F)c(F)c3)nc2=O)N1C (centres unmarked) [Example E2, 7-((3,4-difluorobenzyl)oxy)-1,2-dimethyl-2,3-dihydroimidazo[1,2-c]pyrimidin-5(1H)-one]
3 | ≤ 100 nM | ≤ 1 nM |  | CC1Cn2c(cc(OCc3ccc(Oc4ccc(C#N)c(C(F)(F)F)c4)c(F)c3)nc2=O)N1C (centres unmarked) [Example E3, 4-(4-(((1,2-dimethyl-5-oxo-1,2,3,5-tetrahydroimidazo[1,2-c]pyrimidin-7-yl)oxy)methyl)-2-fluorophenoxy)-2-(trifluoromethyl)benzonitrile]
4 | ≤ 100 nM | ≤ 10 nM |  | C[C@H]1Cn2c(cc(OCc3ccc(F)c(F)c3)nc2=O)N1C [Example E7, (S)-7-((3,4-difluorobenzyl)oxy)-1,2-dimethyl-2,3-dihydroimidazo[1,2-c]pyrimidin-5(1H)-one]
5 | ≤ 100 nM | ≤ 10 nM |  | CN1c2cc(OCCc3cccs3)nc(=O)n2CC1(C)C [Example E8, 1,2,2-trimethyl-7-(2-(thiophen-2-yl)ethoxy)-2,3-dihydroimidazo[1,2-c]pyrimidin-5(1H)-one]
6 | ≤ 100 nM | ≤ 1 nM |  | C[C@H]1Cn2c(cc(OCc3ccc(Oc4ccnc(C(F)(F)F)c4)c(F)c3)nc2=O)N1C [Example E10, (S)-7-((3-fluoro-4-((2-(trifluoromethyl)pyridin-4-yl)oxy)benzyl)oxy)-1,2-dimethyl-2,3-dihydroimidazo[1,2-c]pyrimidin-5(1H)-one]
7 | ≤ 100 nM | ≤ 1 nM |  | CN1c2cc(OCc3ccc(F)c(Cl)c3)nc(=O)n2CC1(C)C [Example E11, 7-((3-chloro-4-fluorobenzyl)oxy)-1,2,2-trimethyl-2,3-dihydroimidazo[1,2-c]pyrimidin-5(1H)-one]
8 | ≤ 100 nM | ≤ 1 nM | 0.0316 nM | CN1c2cc(OCc3ccc(Oc4ccc(Cl)nc4)c(F)c3)nc(=O)n2CC1(C)C [Example E12, 7-((4-((6-chloropyridin-3-yl)oxy)-3-fluorobenzyl)oxy)-1,2,2-trimethyl-2,3-dihydroimidazo[1,2-c]pyrimidin-5(1H)-one]
9 | ≤ 100 nM | ≤ 1 nM | 0.0501 nM | CN1c2cc(OCc3cc(F)c(Oc4ccc(Cl)nc4)c(F)c3)nc(=O)n2CC1(C)C [Example E13, 7-((4-((6-chloropyridin-3-yl)oxy)-3,5-difluorobenzyl)oxy)-1,2,2-trimethyl-2,3-dihydroimidazo[1,2-c]pyrimidin-5(1H)-one]
10 | ≤ 100 nM | ≤ 10 nM |  | [2H]C([2H])(Oc1cc2n(c(=O)n1)CC(C)(C)N2C([2H])([2H])[2H])c1cccc(F)c1F [Example E15, 7-(dideutero(2,3-difluorobenzyl)oxy)-1-trideuteromethyl-2,2-dimethyl-2,3-dihydroimidazo[1,2-c]pyrimidin-5(1H)-one]
11 | ≤ 100 nM | ≤ 1 nM |  | C[C@H]1Cn2c(cc(OCc3cc(F)c(Oc4ccc(C(F)(F)F)nc4)c(F)c3)nc2=O)N1 [Example E16, (S)-7-((3,5-difluoro-4-((6-(trifluoromethyl)pyridin-3-yl)oxy)benzyl)oxy)-2-methyl-2,3-dihydroimidazo[1,2-c]pyrimidin-5(1H)-one]
12 | ≤ 100 nM | ≤ 1 nM |  | N#Cc1cc(COc2cc3n(c(=O)n2)CCN3C2CC2)ccc1Oc1cccc(C(F)(F)F)c1 [Example E18, 5-(((1-cyclopropyl-5-oxo-1,2,3,5-tetrahydroimidazo[1,2-c]pyrimidin-7-yl)oxy)methyl)-2-(3-(trifluoromethyl)phenoxy)benzonitrile]
13 | ≤ 100 nM | ≤ 1 nM |  | C[C@H]1Cn2c(cc(OCc3ccc(Oc4ccc(C#N)c(C(F)(F)F)c4)c(F)c3)nc2=O)N1C [Example E19, (S)-4-(4-(((1,2-dimethyl-5-oxo-1,2,3,5-tetrahydroimidazo[1,2-c]pyrimidin-7-yl)ox-y)methyl)-2-fluorophenoxy)-2-(trifluoromethyl)benzonitrile]
14 | ≤ 100 nM | ≤ 1 nM | 0.158 nM | C[C@H]1Cn2c(cc(OCc3ccc(Oc4cncc(Cl)c4)c(F)c3)nc2=O)N1C [Example E23, (S)-7-((4-((5-chloropyridin-3-yl)oxy)-3-fluorobenzyl)oxy)-1,2-dimethyl-2,3-dihydroimidazo[1,2-c]pyrimidin-5(1H)-one]
15 | ≤ 100 nM | ≤ 1 nM | 0.0794 nM | CN1c2cc(OCc3cc(F)c(Oc4ccnc(C(F)(F)F)c4)c(F)c3)nc(=O)n2CC1(C)C [Example E25, 7-((3,5-difluoro-4-((2-(trifluoromethyl)pyridin-4-yl)oxy)benzyl)oxy)-1,2,2-trimethyl-2,3-dihydroimidazo[1,2-c]pyrimidin-(1H)-one]
16 | ≤ 100 nM | ≤ 1 nM | 0.0158 nM | CN1c2cc(OCc3ccc(Oc4cncc(C(F)(F)F)c4)c(F)c3)nc(=O)n2CC1(C)C [Example E26, 7-((3-fluoro-4-((5-(trifluoromethyl)pyridin-3-yl)oxy)benzyl)oxy)-1,2,2-trimethyl-2,3-dihydroimidazo[1,2-c]pyrimidin-5(1H)-one]
17 | ≤ 100 nM | ≤ 1 nM | 0.2 nM | CN1c2cc(OCc3ccc(Oc4ccnc(F)c4)c(F)c3)nc(=O)n2CC1(C)C [Example E29, 7-((3-fluoro-4-((2-fluoropyridin-4-yl)oxy)benzyl)oxy)-1,2,2-trimethyl-2,3-dihydroimidazo[1,2-c]pyrimidin-5(1H)-one]
18 | ≤ 100 nM | ≤ 1 nM |  | CN1c2cc(OCc3cc(F)c(Oc4ccnc(Cl)c4)c(F)c3)nc(=O)n2CC1(C)C [Example E30, 7-((4-((2-chloropyridin-4-yl)oxy)-3,5-difluorobenzyl)oxy)-1,2,2-trimethyl-2,3-dihydroimidazo[1,2-c]pyrimidin-5(1H)-one]
19 | ≤ 100 nM |  |  | CN1c2cc(OCc3cc(F)c(F)cc3F)nc(=O)n2CC1(C)C [Example E115, 1,2,2-trimethyl-7-((2,4,5-trifluorobenzyl)oxy)-2,3-dihydroimidazo[1,2-c]pyrimidin-5(1H)-one]
20 | ≤ 100 nM |  |  | CN1c2cc(OCCc3ccc(F)c(F)c3)nc(=O)n2CC1(C)C [Example E117, 7-(3,4-difluorophenethoxy)-1,2,2-trimethyl-2,3-dihydroimidazo[1,2-c]pyrimidin-5(1H)-one]
